Assay results: patent publication US20230106465A1, “7-Gene Prognostic and Predictive Assay for Non-Small Cell Lung Cancer in Formalin Fixed and Paraffin Embedded Samples” (West Virginia University, priority 2019, published 2023)

Columns and labels:
Assay type in all cases: in vivo, human
[1] = test system: SLC39A8; assay: Cox proportional hazard model using SLC39A8 ΔCt values in qRT-PCR of NSCLC patients treated with chemotherapy; settings: SLC39A8 expression
Text: (§1) Patient samples. All NSCLC patients were staged I, II, or IIIA at the time of diagnosis. Tumor tissues were collected in surgical resections and were then formalin fixed or paraffin embedded until used for RNA extraction. Tumor cell content was above 50% for qRT-PCR assays. Those with missing AJCC staging information, missing histology, death within 30 days of resection or from other disease conditions were excluded from further analysis. A total of 122 NSCLC patient samples were obtained from Case Western Reserve University (CWRU) Comprehensive Cancer Center. […] The tissue collection in this study was approved by an Institutional Review Board (IRB) at each institution.
(§2) RNA extraction, and quality and concentration assessments. […] The quality and integrity of the RNA, the 28S to 18S ratio, and a visual image of the 28S and 18S bands were evaluated on the 2100 Bioanalyzer (Agilent Technologies, CA). […] The RNA concentration of each sample was assessed using a Nanodrop-1000 Spectrophotometer (NanoDrop Tech, Germany). […]
(§3) Real-time quantitative RT-PCR low-density arrays. […]
(§4) Three hundred thirty seven (337) tumor samples were analyzed with good RNA quality using TaqMan microfluidic low-density array (LDA) plates on an ABI 7900HT Fast RT-PCR instrument (Applied Biosystems).

[2] = test system: FUT7; assay: Cox proportional hazard model using FUT7 ΔCt values in qRT-PCR of NSCLC patients treated with chemotherapy; settings: FUT7 expression
Text: Patient samples. All NSCLC patients were staged I, II, or IIIA at the time of diagnosis. Tumor tissues were collected in surgical resections and were then formalin fixed or paraffin embedded until used for RNA extraction. Tumor cell content was above 50% for qRT-PCR assays. Those with missing AJCC staging information, missing histology, death within 30 days of resection or from other disease conditions were excluded from further analysis. A total of 122 NSCLC patient samples were obtained from Case Western Reserve University (CWRU) Comprehensive Cancer Center. Total RNA of good quality was extracted from 89 tumor specimens. […]
RNA extraction, and quality and concentration assessments. […] The quality and integrity of the RNA, the 28S to 18S ratio, and a visual image of the 28S and 18S bands were evaluated on the 2100 Bioanalyzer (Agilent Technologies, CA). RNA assessed as having good quality from […] tumor samples was included for further analysis. The RNA concentration of each sample was assessed using a Nanodrop-1000 Spectrophotometer (NanoDrop Tech, Germany). […]
as §3
Three hundred thirty seven (337) tumor samples were analyzed with good RNA quality using TaqMan microfluidic low-density array (LDA) plates on an ABI 7900HT Fast RT-PCR instrument (Applied Biosystems). Total RNA samples were analyzed on an Agilent 2100 Bioanalyzer RNA 6000 Nano LabChip. […]

[3] = test system: ABCC4; assay: Cox proportional hazard model using ABCC4 ΔCt values in qRT-PCR of NSCLC patients treated with chemotherapy; settings: ABCC4 expression; patients treated with the named agent(s)
Text: as §1, §2, §3, §4

With `Nc1nc2[nH]cc(CCc3ccc(C(=O)N[C@@H](CCC(=O)O)C(=O)O)cc3)c2c(=O)[nH]1` [Alimta, pemetrexed] the Chemosensitive/resistant [1] was “Chemoresistant”.
In the case of `N.N.O=C([O-])C1(C(=O)[O-])CCC1.[Pt+2]` [Carboplatin, carboplatin], the Chemosensitive/resistant [2] is reported as “Chemosensitive”.
For `CC(=O)O[C@H]1C(=O)[C@@]2(C)[C@H]([C@H](OC(=O)c3ccccc3)[C@]3(O)C[C@H](OC(=O)[C@H](O)[C@@H](NC(=O)c4ccccc4)c4ccccc4)C(C)=C1C3(C)C)[C@]1(OC(C)=O)CO[C@@H]1C[C@@H]2O` [Taxol, paclitaxel], the Chemosensitive/resistant [1] was “Chemoresistant” and the Chemosensitive/resistant [3] was “Chemoresistant”.
